{"source": "ChEMBL document CHEMBL3301555", "about": "“MMV Malaria Box screening in pLDH viability assay against Plasmodium falciparum gametocytes”", "data": [{"tested_on": "Plasmodium falciparum", "assay": "MMV: Measure of pLDH activity as indication of parasite viability. Gametocytogenesis of 3D7 Plasmodium falciparum strain was induced in vitro and asexual parasites were depleted with N-acetylglucosamine. Gametocytes were treated with dihydroartemisinin, epoxomicin, methylene blue, primaquine, puromycin or chloroquine in 96-well plates and the pLDH activity was evaluated using a modified Makler protocol. Mosquito infectivity was measured by the standard membrane feeding assay.", "type": "functional", "parameters": "concentration or dose not given beside the values", "units": {"Growth Inhibition": "%"}, "values": [{"molecule": "Cc1ccc(S(=O)(=O)c2c(COC(=O)c3cccc(C)c3)c(-c3ccccc3)nn2C)cc1", "Growth Inhibition": 4.058}, {"molecule": "CC(C)=CCN1CCC(C(=O)Nc2ccc(-c3nc4ccccc4[nH]3)cc2)CC1", "Growth Inhibition": 16.6684}, {"molecule": "O=C(Nc1cccc(C2=NCCN2)c1)Nc1cccc(C2=NCCN2)c1", "note": "[IMIDOCARB]", "Growth Inhibition": 24.1816}, {"molecule": "CCn1c(CN2CCN(Cc3ccccc3)CC2)nc2cc(NC(=O)c3cccs3)ccc21", "Growth Inhibition": 17.812}, {"molecule": "Cc1nc2ccccc2c(O)c1CC=C(Cl)Cl", "Growth Inhibition": 28.4855}, {"molecule": "CCCN(CCC)CCCNC(=O)c1cc2c(-c3ccc(OC)c(OC)c3)nn(C)c2s1", "Growth Inhibition": 9.751}, {"molecule": "COc1ccc(/C=C2/SC(=Nc3ccccc3)NC2=O)cc1", "Growth Inhibition": 42.24}, {"molecule": "CC(=O)c1ccc(NC(=O)CSc2nc(-c3ccccc3Cl)ns2)cc1", "Growth Inhibition": 4.3696}, {"molecule": "COc1ccc2sc(N(Cc3cccnc3)C(=O)c3ccc(C#N)cc3)nc2c1", "Growth Inhibition": -6.4226}, {"molecule": "COc1ccc(Nc2nc(N/N=C/c3ccc(O)cc3)nc(Nc3ccc([N+](=O)[O-])cc3)n2)cc1", "Growth Inhibition": 24.1364}, {"molecule": "Cc1ccc(C(=O)c2oc3ccc4c(C)cc(=O)oc4c3c2C)cc1", "Growth Inhibition": 1.1304}, {"molecule": "COc1ccc(C(=O)Nc2nonc2-c2ccc(OC)c(OC)c2)cc1Cl", "Growth Inhibition": 7.9826}, {"molecule": "O=C(Nc1ccc(N2CCCCC2)c(Cl)c1)c1ccc(Br)o1", "Growth Inhibition": -4.8588}, {"molecule": "Clc1ccc2[nH]c3c(NCCCN4CCOCC4)ncnc3c2c1", "Growth Inhibition": 9.617}, {"molecule": "CCCCCCC(O)(c1ccc(F)cc1)C(CN1CCOCC1)c1ccccc1.Cl", "note": "(stereo not given)", "Growth Inhibition": -0.4664}, {"molecule": "Cc1ccc(N2C3c4ccccc4N(S(=O)(=O)c4ccc(C)cc4)C2c2ccccc2N3S(=O)(=O)c2ccc(C)cc2)cc1", "Growth Inhibition": -2.5084}, {"molecule": "CN1C=C(c2ccc3ccccc3n2)C(c2c[nH]c3ccccc23)c2ccccc21", "note": "(stereo not given)", "Growth Inhibition": 12.6514}, {"molecule": "COc1ccc(C)c2sc(N(Cc3cccnc3)C(=O)c3ccc(C#N)cc3)nc12", "Growth Inhibition": -12.2204}, {"molecule": "Oc1ccc(-c2nc(-c3ccc4oc5ccc(-c6[nH]c(-c7ccc(O)cc7)nc6-c6ccccc6)cc5c4c3)c(-c3ccccc3)[nH]2)cc1", "Growth Inhibition": 21.6376}, {"molecule": "Cc1ccc2nc(C)cc(Nc3cccc(C(F)(F)F)c3)c2c1.Cl", "Growth Inhibition": -5.193}, {"molecule": "CCOC(=O)c1c(C)n(-c2ccccc2)c2ccc(OC(=O)c3cc(OC)c(OC)c(OC)c3)cc12", "Growth Inhibition": -1.486}, {"molecule": "CCCCNc1nc(NC(C)(C)C)nc(NC(C)(C)C)n1", "Growth Inhibition": 40.1594}, {"molecule": "COc1ccc(N2CCN(C(CNC(=O)C3CCCCC3)c3ccc4c(c3)OCO4)CC2)cc1", "note": "(stereo not given)", "Growth Inhibition": 22.7332}, {"molecule": "CCOC(=O)C1=C(C)N=c2sc(=Cc3ccccc3O)c(=O)n2C1c1ccc(OC)c2ccccc12", "note": "(stereo not given)", "Growth Inhibition": 6.5248}, {"molecule": "COc1ccccc1CNC(=O)CCn1c(=O)[nH]c2ccccc2c1=O", "Growth Inhibition": -1.4414}, {"molecule": "CCOC(=O)c1cnc2ccc(CC)cc2c1O", "Growth Inhibition": 41.8585}, {"molecule": "O=C(NCC1Cc2cccc(-c3ccncc3)c2O1)c1csc2c1CCCC2", "note": "(stereo not given)", "Growth Inhibition": 15.175}, {"molecule": "CCOC(=O)C1(Cc2ccccc2)CCN(Cc2cccc(OC)c2O)CC1", "Growth Inhibition": 37.59}, {"molecule": "O=C(Nc1ccc(-c2nc3ccccc3[nH]2)cc1)c1ccc(Cl)c(Cl)c1", "Growth Inhibition": 11.2736}, {"molecule": "CCN(CC)CCNc1ncnc2c1[nH]c1ccc(Cl)cc12", "Growth Inhibition": 10.0038}, {"molecule": "CC1(c2ccccc2)Nc2ccccc2-c2nc3ccccc3n21", "note": "(stereo not given)", "Growth Inhibition": 8.0798}, {"molecule": "O=C1CC(O)(C(F)(F)C(F)(F)F)Oc2ccccc21", "note": "(stereo not given)", "Growth Inhibition": 1.4958}, {"molecule": "Nc1nc(Nc2cccc(F)c2)nc2ccccc12", "Growth Inhibition": 18.202}, {"molecule": "CCCCCCc1cc(O)c2c3c(c(=O)oc2c1)CCC(C)C3", "note": "(stereo not given)", "Growth Inhibition": 26.585}, {"molecule": "COCCNCC(O)Cn1c2ccc(Cl)cc2c2cc(Cl)ccc21", "note": "(stereo not given)", "Growth Inhibition": 45.598}, {"molecule": "c1ccc2c(NCCc3c[nH]c4ccccc34)c3ccccc3nc2c1", "Growth Inhibition": 22.8248}, {"molecule": "Cc1cc(NCCN2CCCCC2)c2ccc3ccccc3c2n1", "Growth Inhibition": 17.8584}, {"molecule": "Fc1ccc2[nH]c3c(NCCCN4CCOCC4)ncnc3c2c1", "Growth Inhibition": 3.632}, {"molecule": "CCN(CC)CCNc1ncnc2c1[nH]c1ccc(Br)cc12", "Growth Inhibition": 8.817}, {"molecule": "CCOc1cccc2sc(N(Cc3cccnc3)C(=O)C3CCCCC3)nc12", "Growth Inhibition": 1.8442}, {"molecule": "C=C(C)CCC(C)N1CCC(N2CCC(C(=O)NCCc3ccccc3)CC2)CC1", "note": "(stereo not given)", "Growth Inhibition": 9.4772}, {"molecule": "O=C(Nc1ccccc1O)c1ccc(-c2ccc(Cl)cc2Cl)o1", "Growth Inhibition": 15.81}, {"molecule": "Cc1ccnc(NC(c2cccc(OCc3ccccc3)c2)c2ccc3cccnc3c2O)c1", "note": "(stereo not given)", "Growth Inhibition": -1.2034}, {"molecule": "CCN1CCN(c2cc(C)c3cc(NC(=O)c4ccc(OC)c(OC)c4)ccc3n2)CC1", "Growth Inhibition": 12.8102}, {"molecule": "CCN(Cc1ccccc1)C1CCN(Cc2cc(Br)ccc2O)CC1.O=C(O)C(=O)O", "Growth Inhibition": 47.2545}, {"molecule": "CC(Oc1ccc(NC(=O)c2cccs2)cc1)C(=O)c1ccc(Cl)cc1", "note": "(stereo not given)", "Growth Inhibition": 16.818}, {"molecule": "COc1ccc(-n2ccnc2SCC(=O)Nc2cc(C)ccc2C)c(OC)c1", "Growth Inhibition": 2.884}, {"molecule": "CCOC(=O)c1cn(CC)c2cc(N3CCCCC3)c(F)cc2c1=O", "Growth Inhibition": 27.8444}, {"molecule": "CCOC(=O)C1=C(C)N=c2sc(=Cc3cc(Cl)ccc3O)c(=O)n2C1c1ccc(OC)cc1", "note": "(stereo not given)", "Growth Inhibition": 18.9955}, {"molecule": "CCOC(=O)c1cnc2ccc(Cl)cc2c1NCCCN(C)C", "Growth Inhibition": 5.776}, {"molecule": "COc1cc(-c2nc(-c3ccc(Sc4ccccc4)cc3)c(-c3ccccc3)[nH]2)cc(OC)c1O", "Growth Inhibition": 10.5558}, {"molecule": "O=C(Nc1ccc(-c2nc3cc(NC(=O)c4ccc(Cl)cc4)ccc3[nH]2)cc1)c1ccc(Cl)cc1", "Growth Inhibition": 18.844}, {"molecule": "c1ccc(-c2ccc(-c3nc4ccccc4[nH]3)cc2)cc1", "Growth Inhibition": 7.2118}, {"molecule": "CCOc1ccc(N2C(N)=NC(N)=NC2(C)C)cc1.Cl", "Growth Inhibition": -4.3826}, {"molecule": "CCN(CC)CCNc1ccnc2cc(Cl)ccc12", "Growth Inhibition": 9.9324}, {"molecule": "O=C(NC1CCCC1)c1ccc(N2CCC(NCc3cccc(C(F)(F)F)c3)CC2)cc1", "Growth Inhibition": 6.6358}, {"molecule": "O=C(CCc1ccccc1)c1ccccc1OCC(O)CN1CCCCC1", "note": "(stereo not given)", "Growth Inhibition": 24.7266}, {"molecule": "CCOC(=O)c1c(C)n(-c2ccc(Cl)cc2)c2ccc(OC(=O)C=Cc3ccccc3)cc12", "Growth Inhibition": -3.2706}, {"molecule": "O=C(CSc1ccc2nnc(-c3cccc(F)c3)n2n1)Nc1ccc2c(c1)OCO2", "Growth Inhibition": 8.1908}, {"molecule": "CC(=O)Nc1nnc(SCc2c(C)cc(C(C)(C)C)cc2C)s1", "Growth Inhibition": -6.288}, {"molecule": "Cc1cc(Nc2ccc(Cl)cc2)n2nc(C(F)(F)F)nc2n1", "Growth Inhibition": 7.7522}, {"molecule": "COc1ccccc1N1C(=N)SC(=Cc2ccc(OCc3ccccc3F)cc2)C1=O", "Growth Inhibition": 14.0558}, {"molecule": "OC(CNC1CCCC1)Cn1c2ccccc2c2ccccc21", "note": "(stereo not given)", "Growth Inhibition": 39.5038}, {"molecule": "COc1ccc(CCNC(=O)c2cc(S(=O)(=O)N3CC(C)CC(C)C3)ccc2Sc2ccc(F)cc2)cc1OC", "note": "(stereo not given)", "Growth Inhibition": 10.1532}, {"molecule": "COc1ccc2nc(C)cc(Nc3cccc(O)c3)c2c1.Cl", "Growth Inhibition": 10.892}, {"molecule": "COc1ccc(CNC2CCN(c3ccc(NC(=O)c4cccc(Cl)c4)cc3)CC2)cc1OC", "Growth Inhibition": 12.3618}, {"molecule": "CN1CCN(c2nc(Nc3ccc(O)cc3)nc3ccccc23)CC1.Cl", "Growth Inhibition": 11.7422}, {"molecule": "CCOc1ccc(CCNC(=O)c2cccs2)cc1OCC", "Growth Inhibition": 6.4232}, {"molecule": "CCOc1ccc(C2N(C)c3ccccc3N2C)cc1", "Growth Inhibition": 9.8332}, {"molecule": "CCOc1cc2c(cc1OCC)C(c1cc(OC)c(O)cc1Cl)NCC2", "note": "(stereo not given)", "Growth Inhibition": 24.0654}, {"molecule": "COc1ccc(C2=C(c3ccc(OC)cc3)C3(c4ccccc4)C(=O)C2(c2ccccc2)C2C(=O)N(c4ccc(C)cc4)C(=O)C23)cc1", "note": "(stereo not given)", "Growth Inhibition": -4.8036}, {"molecule": "CCOC(=O)C1=C(c2ccccc2)N=c2sc(=Cc3cc(C)n(-c4ccc(F)cc4)c3C)c(=O)n2C1c1cccc(OC)c1OC", "note": "(stereo not given)", "Growth Inhibition": -7.255}, {"molecule": "Cc1ccc(CN2CCC(C(=O)Nc3ccc(-c4cc5ccccc5[nH]4)cc3)CC2)o1", "Growth Inhibition": 25.7326}, {"molecule": "O=C(Nc1ccc(C23CC4CC(CC(c5ccccc5)(C4)C2)C3)cc1)c1cccs1", "Growth Inhibition": 4.2535}, {"molecule": "COc1ccc2c(c1)C1(Nc3ccccc3-c3nc4ccccc4n31)C(=O)N2", "note": "(stereo not given)", "Growth Inhibition": 23.3334}, {"molecule": "Cn1c(=O)c2cc(C(=O)NCCCN3CCCCCC3)sc2c2ccccc21", "Growth Inhibition": 15.852}, {"molecule": "CCOc1cc(Cl)c(C(C)NC(=O)c2cccc(OC)c2)cc1OCC", "note": "(stereo not given)", "Growth Inhibition": 18.9364}, {"molecule": "CCn1nc(-c2ccc(C(=O)OC)cc2)nc2c(=O)n(C)c(=O)nc1-2", "Growth Inhibition": 19.8788}, {"molecule": "COc1ccc(C2N(C)c3ccccc3N2C)cc1", "Growth Inhibition": 3.9982}, {"molecule": "Cc1ccc(NC(=O)Nc2cccc(Cl)c2)cc1F", "Growth Inhibition": 3.3088}, {"molecule": "CCC(c1ccccc1)c1nn2c(-c3cccs3)nnc2s1", "note": "(stereo not given)", "Growth Inhibition": 4.041}, {"molecule": "CCN(CC)c1ccc(NC(=O)c2cccs2)cc1", "Growth Inhibition": 3.9542}, {"molecule": "COCCNC(=O)c1ccc(OC2CCN(Cc3ccc(F)c(F)c3)CC2)c(Cl)c1", "Growth Inhibition": 5.6964}, {"molecule": "COc1ccc(N2CCN(C(CNC(=O)CC(C)(C)C)c3ccc4c(c3)OCO4)CC2)cc1", "note": "(stereo not given)", "Growth Inhibition": 14.9208}, {"molecule": "Cc1ccc(CSCc2ccc(C(=O)NC3CC3)o2)cc1", "Growth Inhibition": 9.7118}]}]}
